# Reference: ChEMBL document CHEMBL4145513, “An overview on crystal structures of InhA protein: Apo-form, in complex with its natural ligands and inhibitors” (Eur J Med Chem, 2018)
# How the values were obtained:
# [1] = test system: Mycobacterium tuberculosis; assay: Antimycobacterial activity against Mycobacterium tuberculosis; format: functional
# [2] = target: T1, Enoyl-[acyl-carrier-protein] reductase [NADH] (Mycobacterium tuberculosis, UniProt P9WGR1); assay: Inhibition of Mycobacterium tuberculosis InhA using trans-2-dodecenoyl-CoA as substrate
# T1 sequence (P9WGR1 whole entry): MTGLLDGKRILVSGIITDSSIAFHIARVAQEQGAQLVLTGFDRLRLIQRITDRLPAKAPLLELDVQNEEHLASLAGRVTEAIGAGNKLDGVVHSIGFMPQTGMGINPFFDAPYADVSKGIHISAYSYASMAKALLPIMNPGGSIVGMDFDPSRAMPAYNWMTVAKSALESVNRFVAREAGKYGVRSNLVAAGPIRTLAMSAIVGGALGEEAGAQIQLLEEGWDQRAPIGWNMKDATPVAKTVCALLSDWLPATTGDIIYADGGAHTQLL
# [3] = target: T1, Enoyl-[acyl-carrier-protein] reductase [NADH]; assay: Binding affinity to Mycobacterium tuberculosis InhA in presence of NADH
# [4] = target: T1, Enoyl-[acyl-carrier-protein] reductase [NADH]; assay: Binding affinity to Mycobacterium tuberculosis InhA in presence of NAD+
# [5] = target: T1, Enoyl-[acyl-carrier-protein] reductase [NADH]; assay: Inhibition of Mycobacterium tuberculosis InhA using dodecenoyl-CoA as substrate in presence of NADH by fluorimetric analysis
# [6] = target: T1, Enoyl-[acyl-carrier-protein] reductase [NADH]; assay: Inhibition of Mycobacterium tuberculosis InhA
# [7] = target: T1, Enoyl-[acyl-carrier-protein] reductase [NADH]; assay: Binding affinity to Mycobacterium tuberculosis InhA in presence of NAD+ by surface plasmon resonance assay
# [8] = target: T1, Enoyl-[acyl-carrier-protein] reductase [NADH]; assay: Binding affinity to Mycobacterium tuberculosis InhA in presence of NADH by surface plasmon resonance assay
# [9] = target: T1, Enoyl-[acyl-carrier-protein] reductase [NADH]
# [10] = test system: Mycobacterium tuberculosis; assay: Antimycobacterial activity against Mycobacterium tuberculosis after 5 days by fluoresence analysis; format: functional; conditions: 120 h
# [11] = target: T1, Enoyl-[acyl-carrier-protein] reductase [NADH]; assay: Inhibition of Mycobacterium tuberculosis InhA using trans-2-decenoyl-CoA as substrate by spectrophotometric analysis
# [12] = target: T1, Enoyl-[acyl-carrier-protein] reductase [NADH]; assay: Binding affinity to Mycobacterium tuberculosis InhA in presence of TCEP and NADH by isothermal titration calorimetry
smiles,measurement,setting,value
CC1(C)CCC(Cc2cc(O)c(-c3ccccc3)c(=O)[nH]2)CC1,MIC50,[1],0.08 µM
same,IC50,[2],570 nM
Oc1cc(Cl)ccc1Oc1ccc(Cl)cc1Cl [TRICLOSAN],MIC99,[1],43.1 µM
Cc1csc(C(C)(O)c2nnc(Nc3ccn(Cc4c(F)cccc4F)n3)s2)n1 (centres undefined),MIC50,[1],0.19 µM
same,Kd,[3],11.5 nM
same,Kd,[4],9300 nM
same,IC50,[5],3 nM
Cc1csc(C(C)(O)c2n[nH]/c(=N\C(=O)c3c(F)cccc3F)s2)n1 (centres undefined),MIC50,[1],3.75 µM
same,IC50,[5],200 nM
CCCCCCc1ccc(Oc2ccccc2Br)c(O)c1,MIC50,[1],8.8 µM
same,IC50,[6],10 nM
CCCCc1ccnc(Cc2ccc(Oc3ccc(Cl)cc3Cl)c(O)c2)c1,MIC99,[1],6.4 µM
same,Ki,[6],1100 nM
CNC(=O)c1cnc(NC2CCN(c3ccccn3)CC2)c(NCc2ccc(F)c(Oc3ccccc3)c2)c1,Kd,[7],> 100000 nM
same,Kd,[8],250 nM
same,IC50,[9],297 nM
same,MIC50,[10],25 µM
Cc1cc(C)n(Cc2ccc(C(=O)NCc3ccc(F)cc3Cl)cc2)n1,MIC90,[1],10 µM
same,Ki,[6],50 nM
NC(=O)c1c[n+]([C@@H]2O[C@H](COP(=O)(O)OP(=O)(O)OC[C@H]3O[C@@H](n4cnc5c(N)ncnc54)[C@H](O)[C@@H]3O)[C@@H](O)[C@H]2O)ccc1C(=O)c1ccncc1,Ki,[11],0.75 nM
NC(=O)c1c[n+]([C@@H]2O[C@H](COP(=O)(O)OP(=O)(O)OC[C@H]3O[C@@H](n4cnc5c(N)ncnc54)[C@H](OP(=O)(O)O)[C@@H]3O)[C@@H](O)[C@H]2O)ccc1C(=O)c1ccncc1,Ki,[6],130 nM
CNC(=O)CN(Cc1ccc(F)cc1)C(=O)[C@H]1CC[C@@H](NC(=O)Cc2sc3ccccc3c2C)CC1,Kd,[7],46700 nM
same,Kd,[8],94 nM
same,IC50,[9],600 nM
CCc1cc(C(=O)c2cc[n+]([C@@H]3O[C@H](COP(=O)(O)OP(=O)(O)OC[C@H]4O[C@@H](n5cnc6c(N)ncnc65)[C@H](O)[C@@H]4O)[C@@H](O)[C@H]3O)cc2C(N)=O)ccn1,MIC50,[1],3 µM
same,Ki,[6],7 nM
CCCCCc1ccc(Oc2ccc(Cl)cc2Cl)c(O)c1,MIC99,[1],3.5 µM
same,Ki,[6],11.8 nM
CCCCCCc1ccc(Oc2ccccc2[N+](=O)[O-])c(O)c1,MIC50,[1],39.6 µM
CCCCCCc1ccc(Oc2ccccc2C)c(O)c1,MIC50,[1],10.9 µM
NNC(=O)c1ccncc1 [ISONIAZID],MIC,[1],1.8 µM
Oc1cc(CCc2ccccc2)ccc1Oc1ccc(Cl)cc1Cl,MIC50,[1],52 µM
same,IC50,[6],21 nM
O=c1[nH]c(CC2CCCCC2)cc(O)c1-c1ccccc1,MIC50,[1],0.31 µM
same,Kd,[12],560 nM
same,IC50,[2],590 nM
CNC(=O)[C@@H]1C[C@H](NC(=O)[C@@H](NC(=O)c2ccc(Cn3cccn3)cc2)[C@@H](C)OC(C)(C)C)CN1C(=O)c1ccccc1,Kd,[7],49000 nM
same,Kd,[8],55 nM
same,IC50,[9],12000 nM
same,MIC50,[10],0.13 µM
CNC(=O)CN(C(=O)Cc1ccc(-n2cccn2)cc1)C1CCN(c2ccccn2)CC1,Kd,[7],> 100000 nM
same,Kd,[8],36.8 nM
same,IC50,[9],5900 nM
same,MIC50,[10],50 µM
CCCCCCc1ccc(Oc2ccccc2Cl)c(O)c1,MIC50,[1],5.1 µM
Oc1cc(Cc2ccccc2)ccc1Oc1ccc(Cl)cc1Cl,MIC50,[1],27 µM
same,IC50,[6],51 nM
Oc1cc(CC2CCCCC2)ccc1Oc1ccc(Cl)cc1Cl,MIC50,[1],27 µM
same,IC50,[6],110 nM
CNC(=O)CN1CCN(C(=O)[C@H]2CC[C@@H](NC(=O)Cc3sc4ccccc4c3C)CC2)[C@@H](Cc2ccccc2)C1=O,Kd,[7],13400 nM
same,Kd,[8],340 nM
same,IC50,[9],65 nM
same,MIC50,[10],13 µM
CCCc1cc(C(=O)c2cc[n+]([C@@H]3O[C@H](COP(=O)(O)OP(=O)(O)OC[C@H]4O[C@@H](n5cnc6c(N)ncnc65)[C@H](O)[C@@H]4O)[C@@H](O)[C@H]3O)cc2C(N)=O)ccn1,MIC50,[1],2.7 µM
same,Ki,[6],2 nM
CCCCCCc1ccc(Oc2ccccc2C#N)c(O)c1,MIC50,[1],8.4 µM
same,Ki,[6],2.14 nM
Cc1ccn(C(C)c2nnc(Nc3ccn(Cc4c(F)cccc4Cl)n3)s2)n1 (centres undefined),MIC50,[1],1 µM
same,Ki,[6],2 nM
